According to patent publication US12370166B2, “Pentadecanoylcarnitine for treatment of conditions related to the quality of aging and longevity” (EPITRACKER, INC., priority 2021, dated 2025):

Key:
BT cell system = test: Human primary cell phenotypic profiling, BT cell system (asthma, oncology, autoimmunity, allergy); type: cell-based; details: 6.7 μM stated for pentadecanoylcarnitine
Description: Methods for this human primary cell phenotypic profiling study were those previously described (Venn-Watson, S., Lumpkin, R., Dennis, E. A. Efficacy of dietary odd-chain saturated fatty acid pentadecanoic acid parallels broad associated health benefits in humans: could it be essential? Sci Rep 10:8161 (2020)). Significant activities of pentadecanoylcarnitine were those that were equal to or greater than 0.1|log 10| at 6.7 μM. Biomarkers with significant changes caused by pentadecanoylcarnitine were compared with results from the same study using pentadecanoic acid (C15:0).

Serotonin Transporter = Serotonin Transporter (Homo sapiens, UniProt P31645); test: Transporter pharmacological activity, blocker; type: biochemical; details: for IC50: read-out: RC50 (IC50)
Description: (§1) Methods for this study have been previously described (Venn-Watson, S., Lumpkin, R., Dennis, E. A. Efficacy of dietary odd-chain saturated fatty acid pentadecanoic acid parallels broad associated health benefits in humans: could it be essential? Sci Rep 10:8161 (2020)). Significant activities of pentadecanoylcarnitine were those tagged as having maximum pharmacological activities that were greater than or equal to 70% that of the internal control between the concentrations of 1 to 20 μM. Significant pharmacological activities caused by pentadecanoylcarnitine were compared with results from the same assays using pentadecanoic acid (C15:0).

[1] = target: T1, Cholinergic receptor muscarinic 2 (Homo sapiens, UniProt P08172); test: Receptor-based pharmacological activity, agonist; type: biochemical; details: positive control Acetylcholine chloride; for EC50: read-out: RC50 (EC50)
T1 sequence (P08172 1-466): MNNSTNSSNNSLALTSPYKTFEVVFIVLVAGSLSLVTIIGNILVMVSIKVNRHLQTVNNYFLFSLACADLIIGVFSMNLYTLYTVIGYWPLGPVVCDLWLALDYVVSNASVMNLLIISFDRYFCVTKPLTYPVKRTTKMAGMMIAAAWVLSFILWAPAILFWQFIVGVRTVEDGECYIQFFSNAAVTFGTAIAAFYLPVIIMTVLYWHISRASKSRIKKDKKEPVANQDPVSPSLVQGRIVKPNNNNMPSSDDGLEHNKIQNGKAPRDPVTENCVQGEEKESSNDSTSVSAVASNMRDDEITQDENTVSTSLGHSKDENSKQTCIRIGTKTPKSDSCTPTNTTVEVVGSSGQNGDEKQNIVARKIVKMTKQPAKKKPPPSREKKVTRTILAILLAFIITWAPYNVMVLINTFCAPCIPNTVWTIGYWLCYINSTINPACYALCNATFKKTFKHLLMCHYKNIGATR
Description: as §1

α-2A adrenergic receptor = target: T2, α-2A adrenergic receptor (Homo sapiens, UniProt P08913); test: Receptor-based pharmacological activity, agonist; type: biochemical; details: for EC50: read-out: RC50 (EC50)
T2 sequence (P08913 1-465): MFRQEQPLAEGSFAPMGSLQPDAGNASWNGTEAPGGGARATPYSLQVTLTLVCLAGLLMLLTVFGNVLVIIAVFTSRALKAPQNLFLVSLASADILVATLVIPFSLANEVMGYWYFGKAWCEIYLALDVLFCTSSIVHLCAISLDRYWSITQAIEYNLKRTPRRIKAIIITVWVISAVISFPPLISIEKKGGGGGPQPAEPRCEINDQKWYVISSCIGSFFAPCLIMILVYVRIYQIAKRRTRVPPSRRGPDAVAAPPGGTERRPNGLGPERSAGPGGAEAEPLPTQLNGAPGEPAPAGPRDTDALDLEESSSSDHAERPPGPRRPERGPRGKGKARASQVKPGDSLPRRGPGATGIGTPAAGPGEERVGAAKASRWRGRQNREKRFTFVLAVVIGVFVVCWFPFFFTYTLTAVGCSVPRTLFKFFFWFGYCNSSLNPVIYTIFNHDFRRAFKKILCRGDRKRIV
Description: as §1

Histamine H2 receptor = Histamine H2 receptor (Homo sapiens, UniProt P25021); test: Receptor-based pharmacological activity, antagonist; type: biochemical; details: for IC50: read-out: RC50 (IC50)
Description: as §1

[2] = target: T3, Cholinergic receptor muscarinic 1 (Homo sapiens, UniProt P11229); test: as above; type: biochemical; details: for IC50: read-out: RC50 (IC50)
T3 sequence (P11229 1-460): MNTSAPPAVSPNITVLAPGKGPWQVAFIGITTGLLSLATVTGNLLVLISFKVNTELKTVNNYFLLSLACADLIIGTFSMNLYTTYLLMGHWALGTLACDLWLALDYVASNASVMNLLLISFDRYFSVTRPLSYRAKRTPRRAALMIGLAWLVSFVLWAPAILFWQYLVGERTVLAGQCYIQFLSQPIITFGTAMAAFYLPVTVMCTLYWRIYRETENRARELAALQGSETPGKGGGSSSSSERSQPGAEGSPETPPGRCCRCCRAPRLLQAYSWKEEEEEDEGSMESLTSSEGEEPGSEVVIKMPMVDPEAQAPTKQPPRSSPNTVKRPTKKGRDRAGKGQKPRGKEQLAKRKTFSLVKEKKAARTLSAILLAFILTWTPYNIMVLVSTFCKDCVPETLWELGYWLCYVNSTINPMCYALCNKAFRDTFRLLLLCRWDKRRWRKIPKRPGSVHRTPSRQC
Description: as §1

Histamine H1 receptor = Histamine H1 receptor (Homo sapiens, UniProt P35367); test: as above; type: biochemical; details: for IC50: read-out: RC50 (IC50)
Description: as §1

Dopamine receptor D1 = Dopamine receptor D1 (Homo sapiens, UniProt P21728); test: as above; type: biochemical; details: for IC50: read-out: RC50 (IC50)
Description: as §1

[3] = Blocker, positive control Clomipramine
[4] = Agonist, positive control UK 14304
[5] = Antagonist, positive control Tiotidine
[6] = Antagonist, positive control Atropine
[7] = Antagonist, positive control Mepyramine
[8] = Antagonist, positive control SCH 39166

Chain of Histamine H1 receptor (P35367 whole entry): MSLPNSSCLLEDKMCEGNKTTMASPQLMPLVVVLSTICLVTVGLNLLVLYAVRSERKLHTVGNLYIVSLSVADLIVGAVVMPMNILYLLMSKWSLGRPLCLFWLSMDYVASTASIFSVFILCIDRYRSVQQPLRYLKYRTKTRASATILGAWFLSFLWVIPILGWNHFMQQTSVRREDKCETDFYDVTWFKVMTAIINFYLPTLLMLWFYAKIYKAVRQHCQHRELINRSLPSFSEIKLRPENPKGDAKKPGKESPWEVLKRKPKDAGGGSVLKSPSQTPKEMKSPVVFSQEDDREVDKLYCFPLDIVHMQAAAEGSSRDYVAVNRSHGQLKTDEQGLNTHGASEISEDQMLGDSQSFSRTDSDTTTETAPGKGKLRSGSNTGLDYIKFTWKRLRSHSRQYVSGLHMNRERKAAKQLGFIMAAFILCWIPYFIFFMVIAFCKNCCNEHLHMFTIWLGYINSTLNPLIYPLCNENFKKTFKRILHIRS
Chain of Histamine H2 receptor (P25021 whole entry): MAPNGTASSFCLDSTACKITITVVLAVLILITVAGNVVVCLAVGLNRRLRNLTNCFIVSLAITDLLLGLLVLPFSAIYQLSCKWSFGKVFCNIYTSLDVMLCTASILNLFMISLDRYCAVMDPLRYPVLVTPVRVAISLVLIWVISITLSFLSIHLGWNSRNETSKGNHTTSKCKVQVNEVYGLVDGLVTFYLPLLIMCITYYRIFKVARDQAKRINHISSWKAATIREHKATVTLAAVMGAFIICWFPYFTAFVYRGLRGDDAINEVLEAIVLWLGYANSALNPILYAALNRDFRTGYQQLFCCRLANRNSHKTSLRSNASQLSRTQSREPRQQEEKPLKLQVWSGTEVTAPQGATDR
Chain of Dopamine receptor D1 (P21728 whole entry, species assumed): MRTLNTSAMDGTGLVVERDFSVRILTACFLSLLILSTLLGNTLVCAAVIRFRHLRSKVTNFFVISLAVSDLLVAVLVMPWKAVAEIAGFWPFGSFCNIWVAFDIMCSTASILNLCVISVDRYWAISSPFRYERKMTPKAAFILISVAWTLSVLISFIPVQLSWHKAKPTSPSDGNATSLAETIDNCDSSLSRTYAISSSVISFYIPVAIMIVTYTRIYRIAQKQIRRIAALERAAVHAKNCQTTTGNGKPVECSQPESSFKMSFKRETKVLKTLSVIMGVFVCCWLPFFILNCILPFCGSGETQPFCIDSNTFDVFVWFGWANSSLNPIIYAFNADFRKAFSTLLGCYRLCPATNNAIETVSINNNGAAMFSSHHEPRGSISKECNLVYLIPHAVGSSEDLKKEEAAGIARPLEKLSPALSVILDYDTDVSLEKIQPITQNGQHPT
Chain of Serotonin Transporter (P31645 whole entry): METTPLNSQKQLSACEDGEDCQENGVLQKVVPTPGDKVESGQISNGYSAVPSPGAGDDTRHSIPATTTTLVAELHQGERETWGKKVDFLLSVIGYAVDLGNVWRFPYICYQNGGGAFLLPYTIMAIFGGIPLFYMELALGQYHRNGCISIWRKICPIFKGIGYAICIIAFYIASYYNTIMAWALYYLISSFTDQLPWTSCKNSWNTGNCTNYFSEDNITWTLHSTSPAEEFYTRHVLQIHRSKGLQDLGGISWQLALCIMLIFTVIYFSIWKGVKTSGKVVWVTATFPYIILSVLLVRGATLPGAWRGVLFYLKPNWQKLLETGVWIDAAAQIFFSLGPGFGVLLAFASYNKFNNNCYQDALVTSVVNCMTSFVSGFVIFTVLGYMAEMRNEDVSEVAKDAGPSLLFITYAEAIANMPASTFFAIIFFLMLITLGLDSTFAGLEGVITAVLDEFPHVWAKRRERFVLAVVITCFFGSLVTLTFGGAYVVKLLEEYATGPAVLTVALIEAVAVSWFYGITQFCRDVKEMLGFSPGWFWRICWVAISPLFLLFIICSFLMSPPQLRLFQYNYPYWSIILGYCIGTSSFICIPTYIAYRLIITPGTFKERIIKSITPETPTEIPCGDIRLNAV

CCCCCCCCCCCCCCC(=O)O [Pentadecanoic acid (C15:0), Pentadecanoic acid]
sIL-6 biomarker change (BT cell system): +0.12 log 10
sTNF-α biomarker change (BT cell system): +0.14 log 10
IC50 (Serotonin Transporter; [3]): > 20 µM
Emax (Serotonin Transporter; read-out: Max Response (%) Compared to Positive Control): 1%
Emax ([1]; 1 to 20 μM, read-out: Max Response (%) Compared to Positive Control): 2%
EC50 [1]: > 20 µM
Emax (α-2A adrenergic receptor; Agonist, positive control UK 14304, 1 to 20 μM, read-out: Max Response (%) Compared to Positive Control): 22%
EC50 (α-2A adrenergic receptor; [4]): > 20 µM
Emax (Histamine H2 receptor; Antagonist, positive control Tiotidine, 1 to 20 μM, read-out: Max Response (%) Compared to Positive Control): 2%
IC50 (Histamine H2 receptor; [5]): > 20 µM
Emax ([2]; Antagonist, positive control Atropine, 1 to 20 μM, read-out: Max Response (%) Compared to Positive Control): 0%
IC50 [2, 6]: > 20 µM
Emax (Histamine H1 receptor; Antagonist, positive control Mepyramine, 1 to 20 μM, read-out: Max Response (%) Compared to Positive Control): 5%
IC50 (Histamine H1 receptor; [7]): > 20 µM
Emax (Dopamine receptor D1; Antagonist, positive control SCH 39166, 1 to 20 μM, read-out: Max Response (%) Compared to Positive Control): 4%
IC50 (Dopamine receptor D1; [8]): > 20 µM

CCCCCCCCCCCCCCC(=O)O[C@H](CC(=O)[O-])C[N+](C)(C)C [Pentadecanoylcarnitine, pentadecanoylcarnitine]
sIL-6 biomarker change (BT cell system): −0.13 log 10
sTNF-α biomarker change (BT cell system): −0.10 log 10
Max Response (%) Compared to Positive Control (Serotonin Transporter; Blocker, positive control Clomipramine, 1 to 20 μM): 83%
IC50 (Serotonin Transporter; [3]): 7.4 µM
Pharmacological activity at SERT (Serotonin Transporter; at approximately 1 to 20 μM): blocker
Max Response (%) Compared to Positive Control ([1]; 1 to 20 μM): 206%
EC50 [1]: 3.9 µM
Max Response (%) Compared to Positive Control (α-2A adrenergic receptor; Agonist, positive control UK 14304, 1 to 20 μM): 105%
EC50 (α-2A adrenergic receptor; [4]): 5.9 µM
Pharmacological activity at α-2A adrenergic receptor (α-2A adrenergic receptor; at approximately 1 to 20 μM): agonist
Max Response (%) Compared to Positive Control (Histamine H2 receptor; Antagonist, positive control Tiotidine, 1 to 20 μM): 98%
IC50 (Histamine H2 receptor; [5]): 6.1 µM
Pharmacological activity at histamine H2 receptor (Histamine H2 receptor; at approximately 1 to 20 μM): antagonist
Max Response (%) Compared to Positive Control ([2]; Antagonist, positive control Atropine, 1 to 20 μM): 77%
IC50 [2, 6]: 10.5 µM
Pharmacological activity at cholinergic receptor muscarinic 1 ([2]; at approximately 1 to 20 μM): antagonist
Max Response (%) Compared to Positive Control (Histamine H1 receptor; Antagonist, positive control Mepyramine, 1 to 20 μM): 71%
IC50 (Histamine H1 receptor; [7]): 10.9 µM
Pharmacological activity at histamine H1 receptor (Histamine H1 receptor; at approximately 1 to 20 μM): antagonist
Max Response (%) Compared to Positive Control (Dopamine receptor D1; Antagonist, positive control SCH 39166, 1 to 20 μM): 105%
IC50 (Dopamine receptor D1; [8]): 6.2 µM
Pharmacological activity at dopamine receptor D1 (Dopamine receptor D1; at approximately 1 to 20 μM): antagonist
